One series concerns the target cathepsin S (Homo sapiens, UniProt P25774). In words: Inhibition of cathepsin S (IC50). The class given is biochemical. Conditions: read-out: IC 50 for cathepsin S.
In the next series the test system is collagenase I. In words: Collagenase activity in lysate of the whole Willis ring, type I collagen. Format: in vivo. Conditions: treated rats n=5, P=0.014. The procedure: (§1) One hundred fifty […] of protein was used in one experiment (n=5 in each group). Collagenase activity was measured using Collagenase Activity Measurement Kit (Life Laboratory). Briefly, fluorescence labeled type I or IV collagen was incubated with the lysate of the whole Willis ring for one hour at 37° C. Undigested fluorescence labeled collagen was extracted in ethanol solution and measured by fluorospectrometer with excitation 496 nm and measurement 520 nm. Collgenase activity (U/ml) was calculated by the fluorescence intensity according to the formula given in the manufacture's direction.

A further series has as its system collagenase IV. In words: Collagenase activity in lysate of the whole Willis ring, type IV collagen. The class given is in vivo. Conditions: treated rats n=5, P=0.044. As for the experimental part:
as §1

Series [1] is described as follows: Serum concentration of the inhibitor in treated rats. Particulars: 50 mg/kg/day orally in food. The class given is in vivo.
The next series relates to matrix metalloproteases. In words: Inhibition of other proteases. Format: biochemical.
Series [2] has as its system experimentally induced cerebral aneurysms. In words: Experimentally induced cerebral aneurysm model, histopathology of the ACA/OA bifurcation. Format: in vivo, SD (Sprague-Dawley) rats. The procedure: After the induction of pentobarbital anesthesia (50 mg/kg), the left common carotid artery and posterior branches of the bilateral renal arteries were ligated at the same time with 10-0 nylon in 7 week-old male SD (Sprague-Dawley) rats. Animals were fed special food containing 8% sodium chloride and 0.12% β-aminopropionitrile (an inhibitor of lysyl oxidase that catalyzes the cross-linking of collagen and elastin). Blood pressure was measured by tail-cuff method. Animal care and experiments complied with Japanese community standards on the care and use of laboratory animals.
A total of 18 rats were orally given 50 mg/kg/day of the inhibitor. Immediately after aneurysm induction, rats were fed food with (n=18) or without (n=21) 50 mg/kg/day of the inhibitor, and sacrificed after three months. The ACA/OA bifurcation was stripped and observed under a light microscope after Elastica van Gieson staining. Early aneurysmal change refers to a lesion with the discontinuity of the internal elastic lamina without apparent outward bulging of the arterial wall. Advanced aneurysm refers to an obvious outward bulging of the arterial wall with the fragmentation or disappearance of the internal elastic lamina. After immunohistochemistry for CD68, the number of CD68-positive cells was counted on each section. Three independent researchers assessed the histopathological changes.
The values were expressed as means Standard deviation (SD). Statistical analysis was performed by using Student's t-test for a two-group comparison and one-way ANOVA followed by Fisher test for a multiple comparison. The incidence of aneurysmal changes was analyzed by the use of Fisher's exact test. Differences were considered statistically significant at P<0.05.

Series [3] addresses T1, cathepsin B (Rattus norvegicus, UniProt P00787).
T1 construct: from tissue; host or cells: frozen sections of rat cerebral aneurysmal wall (Sprague-Dawley rats)
Kind of series: Cathepsin B activity in aneurysmal walls, azo-coupling method (in situ). Particulars: three months after aneurysm induction, treated rats. Format: in vivo. As for the experimental part:
In order to examine cathepsin B activity in aneurysmal walls, azo-coupling method (in situ) was performed. Three months after aneurysm induction, rats (n=6 in each group) were euthanized as described above. Five μm frozen sections were incubated for one hour at 37° C. with 3.2 mM Z-arg-arg-4-Methoxy-2-Naphthylamine (Cosmo Bio) in 100 mM potassium phosphate buffer containing 10% polyvinyl alcohol, 10 mM dithiothreitol, 2.7 mM L-Cysteine and 1.3 mM EDTA (Sigma). After then, the slides were placed in 125 mg/ml of N-ethylmaleimide in potassium phosphate buffer following at 55° C. for 5 minutes, followed by incubation with Fast Blue Solution (Fast Blue 21 mg/100 ml of potassium phosphate solution, Sigma) for thirty minutes and 0.1M cupric sulfate solution for 15 minutes at room temperature. After washing with physiological saline, the slides were covered with PERMAFLUOR (Immunotec).

In another series the test system is CD68-positive cells. Kind of series: Macrophage infiltration around aneurysms (CD68-positive cells counted). The class given is in vivo, rats. Particulars: 50 mg/kg/day, n=10; control 5.3±1.5; did not differ. The procedure:
Three months after aneurysm induction, all rats (n=10) were deeply anesthetized and perfused transcardinally with 4% paraformaldehyde. As a control, age-matched male Sprague-Dawley rats were euthanized as described above. The anterior cerebral artery/olfactory artery (ACA/OA) bifurcation was stripped, embedded and cut into 5 μm sections. After blocking with 5% Donkey serum, primary antibodies were incubated for one hour at room temperature followed by incubation with fluorescence labeled secondary antibodies for one hour at room temperature. The secondary antibodies were FITC-conjugated donkey anti-goat IgG antibody, FITC-conjugated donkey anti-rabbit IgG antibody, Cy3-conjugated donkey anti-mouse IgG antibody, and Cy3-conjugated donkey anti-rabbit IgG antibody. Then the slides were covered with PERMAFLUOR (Immunotec) and excited for fluorescence by illumination through a fluorescence microscope system (Olympus). […]
A total of 18 rats were orally given 50 mg/kg/day of the inhibitor. […] After immunohistochemistry for CD68, the number of CD68-positive cells was counted on each section. Three independent researchers assessed the histopathological changes.

Series [4] concerns the target cathepsin B (Homo sapiens, UniProt P07858). Kind of series: Inhibition of cathepsin B (IC50). Format: biochemical. Particulars: read-out: IC 50 for cathepsin B.

“Also recorded” adds a separate entry of the source.

T1 sequence (P00787 80-333): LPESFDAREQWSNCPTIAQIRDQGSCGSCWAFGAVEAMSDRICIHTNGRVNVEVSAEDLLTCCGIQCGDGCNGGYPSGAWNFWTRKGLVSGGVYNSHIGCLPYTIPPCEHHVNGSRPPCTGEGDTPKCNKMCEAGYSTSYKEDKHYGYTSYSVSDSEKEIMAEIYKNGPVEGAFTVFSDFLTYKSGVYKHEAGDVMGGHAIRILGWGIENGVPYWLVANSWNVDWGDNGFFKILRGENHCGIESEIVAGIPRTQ
cathepsin S, sequence (P25774 115-331, species assumed): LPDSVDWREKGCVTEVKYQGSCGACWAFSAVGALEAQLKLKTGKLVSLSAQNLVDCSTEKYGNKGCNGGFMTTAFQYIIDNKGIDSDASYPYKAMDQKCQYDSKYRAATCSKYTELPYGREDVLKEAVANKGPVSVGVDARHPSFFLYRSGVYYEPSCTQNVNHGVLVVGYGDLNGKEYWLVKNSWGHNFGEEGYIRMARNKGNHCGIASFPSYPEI

Consider `CC(C)COC[C@H](CC(C)C)NC(=O)[C@H]1O[C@@H]1C(=O)O` [cysteine protease inhibitor, monosodium (2S,3S)-3-[[(1S)-1-isobutoxymethyl-3-methylbutyl]carbamoyl]-oxirane-2-carboxylate], for which the IC50 was determined as 0.186 µM at cathepsin S and 0.284 µM at cathepsin B [4]. The “Collagenase I activity versus control group” value in the series with collagenase I is on record as “significantly lower”. In addition, in the series on collagenase IV, the “Collagenase IV activity versus control group” value is “significantly lower”. This molecule also came in with a Serum concentration in [1] of 628.5 ± 22.3 nM. Besides, the “Inhibition of other proteases such as matrix metalloproteases” value in the series on matrix metalloproteases is reported as “did not inhibit”. In addition, in series [2] (50 mg/kg/day in food, three months after aneurysm induction, control 19 of 21), the “Rats that developed advanced aneurysms” value is 5 of 10. For the same molecule, the “Rats that showed early aneurysmal changes” value in [2] (50 mg/kg/day in food, three months after aneurysm induction, of 10 rats, control 2 of 21) is listed as 4 rats. Moreover, in series [2] (50 mg/kg/day, three months), the “Incidence of all aneurysmal changes versus control group” value is “not different”. In addition, the “Rate (incidence) of advanced aneurysms versus control group” value in series [2] (50 mg/kg/day, three months, P=0.022) is listed as “significantly lower; also recorded: dramatically reduced”. Also, on cathepsin B [3], the “Cathepsin B activity at the aneurysmal walls versus untreated aneurysm rats” value is reported as “reduced”. For the same molecule, the “Macrophage infiltration per 50 μm×50 μm field around aneurysms” value with CD68-positive cells was found to be 4.9±1.7 cells/field.

Source of the values: patent publication US20110092484A1, “THERAPEUTIC OR PROPHYLACTIC AGENT FOR CEREBRAL ANEURYSM” (NIPPON CHEMIPHAR CO., LTD., priority 2007, published 2011).
